From patent US10961238B2, “Modulators of hedgehog (Hh) signaling pathway” (E-THERAPEUTICS PLC, priority 2016, dated 2021)

System: C3H10T1/2 cells
Experiment: C3H assay: differentiation of C3H10T1/2 cells by mSHH, measurement of alkaline phosphatase
Format: cell-based, mouse
Settings: Mus musculus, C3H 10T1/2, 72 h, read-out: IC50 Ranges

Structure (SMILES) | IC50 [nM]
C[C@@H]1CN(C(=O)N2CC(S(=O)(=O)N3CCC(c4c[nH]c5ncccc45)CC3)C2)C[C@H](C)O1 [Compound 170] | 10 to 100

Same assay, conditions: Mus musculus, C3H 10T1/2; C3H10T1/2 cells stimulated with mSHH for 72 hours; alkaline phosphatase activity; read-out: IC50 Ranges

Structure (SMILES) | IC50 [nM]
CC(C)(C)OC(=O)N1CC(S(=O)(=O)N2CCC(c3c[nH]c4nccnc34)CC2)C1 [Compound 128, tert-Butyl 3-[[4-(5H-pyrrolo[2,3-b]pyrazin-7-yl)-1-piperidyl]sulfonyl] azetidine-1-carboxylate] | 10 to 100
Cc1ccc(S(=O)(=O)n2cc(C3CCN(S(=O)(=O)C4CN(C(=O)OC(C)(C)C)C4)CC3)c3nccnc32)cc1 [Compound 129, tert-butyl 3-[4-[5-(4-methylphenyl)-sulfonylpyrrolo[2,3-b]pyrazin-7-yl]piperidin-1-yl]sulfonylaze-tidine-1-carboxylate] | 1000 to 10000
CC(C)(C)OC(=O)N1CC(S(=O)(=O)N2CCC(c3cnn4ccncc34)CC2)C1 [Compound 130, tert-butyl 3-(4-pyrazolo[1,5-a]pyrazin-3-ylpiperidin-1-yl)sulfonylaze-tidine-1-carboxylate] | 1000 to 10000
CC(C)(C)OC(=O)N1CCC(S(=O)(=O)N2CCC(c3coc4cccnc34)CC2)CC1 [Compound 132, tert-butyl 4-(4-furo[3,2-b]pyridin-3-ylpiperidin-1-yl)sulfonylpiper-idine-1-carboxylate] | 100 to 1000
CC(C)(C)OC(=O)N1CCC(S(=O)(=O)N2CCC(c3c[nH]c4ccccc34)CC2)CC1 [Compound 133, tert-butyl 4-[4-(1H-indol-3-yl)piperidin-1-yl]sulfonylpiper-idine-1-carboxylate] | 100 to 1000
Cc1noc(C)c1CCN1CC(S(=O)(=O)N2CCC(c3coc4cccnc34)CC2)C1 [Compound 134, 3-[1-[1-[2-(3,5-dimethyl-1,2-oxazol-4-yl)ethyl]azetidin-3-yl]sulfonylpiper-idin-4-yl]furo [3,2-b]pyridine] | 100 to 1000
Cc1noc(C)c1NC(=O)N1CC(S(=O)(=O)N2CCC(c3coc4cccnc34)CC2)C1 [Compound 135, N-(3,5-dimethyl-1,2-oxazol-4-yl)-3-(4-furo[3,2-b]pyridin-3-ylpiperidin-1-yl)sulfonylaze-tidine-carboxamide] | < 10
O=C(OC1CCOCC1)N1CC(S(=O)(=O)N2CCC(c3coc4cccnc34)CC2)C1 [Compound 136, oxan-4-yl 3-(4-furo[3,2-b]pyridin-3-ylpiperidin-1-yl)sulfonylaze-tidine-1-carboxylate] | 10 to 100
O=C(N1CCOCC1)N1CC(S(=O)(=O)N2CCC(c3coc4cccnc34)CC2)C1 [Compound 137, [3-(4-furo [3,2-b]pyridin-3-ylpiperidin-1-yl)sulfonylaze-tidin-1-yl]-morpholin-4-ylmethanone] | 100 to 1000
Cc1noc(C)c1CC(=O)N1CC(S(=O)(=O)N2CCC(c3coc4cccnc34)CC2)C1 [Compound 138, N-2-(3,5-Dimethylisoxazol-4-yl)-acetyl 3-[(4-furo[3,2-b]pyridin-3-yl-1-piperidyl)sulfonyl]azetidine] | < 10
O=C(NC1(C(F)(F)F)CC1)N1CC(S(=O)(=O)N2CCC(c3coc4cccnc34)CC2)C1 [Compound 139, 3-(4-furo[3,2-b]pyridin-3-ylpiperidin-1-yl)sulfonyl-N-[1-(trifluoromethyl)cyclopropyl] azetidine-1-carboxamide] | 10 to 100
CC(C)(C)COC(=O)N1CC(S(=O)(=O)N2CCC(c3coc4cccnc34)CC2)C1 [Compound 140, 2,2-dimethylpropyl 3-(4-furo[3,2-b]pyridin-3-ylpiperidin-1-yl)sulfonylaze-tidine-1-carboxylate] | 10 to 100
O=C(OC1CCCCC1)N1CC(S(=O)(=O)N2CCC(c3coc4cccnc34)CC2)C1 [Compound 141, Cyclohexyl 3-[(4-furo[3,2-b]pyridin-3-yl-1-piperidyl)sulfonyl]azetidine-1-carboxylate] | 10 to 100
COC(=O)c1cnc(N2CC(S(=O)(=O)N3CCC(c4c[nH]c5ncccc45)CC3)C2)o1 [Compound 142, methyl 2-[3-[4-(1H-pyrrolo [2,3-b]pyridin-3-yl)piperidin-1-yl]sulfonylaze-tidin-1-yl]-1,3-oxazole-5-carboxylate] | 100 to 1000
CN(C)CC(C)(C)OC(=O)N1CC(S(=O)(=O)N2CCC(c3ccncc3)CC2)C1 [Compound 144, [1-(dimethylamino)-2-methylpropan-2-yl]3-(4-pyridin-4-ylpiperidin-1-yl)sulfonylaze-tidine-1-carboxylate] | 100 to 1000
CCN(CC)CC(C)(C)CN1CC(S(=O)(=O)N2CCC(c3c[nH]c4ncccc34)CC2)C1 [Compound 145, N,N-diethyl-2,2-dimethyl-3-[3-[4-(1H-pyrrolo[2,3-b]pyridin-3-yl)piperidin-1-yl]sulfonylaze-tidin-1-yl]propan-1-amine] | 1000 to 10000
CC(C)(CN1CCOCC1)CN1CC(S(=O)(=O)N2CCC(c3c[nH]c4ncccc34)CC2)C1 [Compound 146] | 1000 to 10000
CC(C)C(C(C)C)N1CC(S(=O)(=O)N2CCC(c3c[nH]c4ncccc34)CC2)C1 [Compound 148, 3-[1-[1-(2,4-dimethylpentan-3-yl)azetidin-3-yl]sulfonylpiper-idin-4-yl]-1H-pyrrolo[2,3-b]pyridine] | 1000 to 10000

Structure (SMILES) | IC50 [nM]
COC(=O)N1CC(S(=O)(=O)N2CCC(c3c[nH]c4ncccc34)CC2)C1 [Compound 151, methyl 3-[4-(1H-pyrrolo [2,3-b]pyridin-3-yl)piperidin-1-yl]sulfonylaze-tidine-1-carboxylate] | 100 to 1000
COCC(C)(C)OC(=O)N1CC(S(=O)(=O)N2CCC(c3c[nH]c4ncccc34)CC2)C1 [Compound 152, (1-methoxy-2-methylpropan-2-yl) 3-[4-(1H-pyrrolo[2,3-b]pyridin-3-yl)piperidin-1-yl]sulfonylaze-tidine-1-carboxylate] | < 10
CC[C@H](C)OC(=O)N1CC(S(=O)(=O)N2CCC(c3c[nH]c4ncccc34)CC2)C1 [Compound 153, [(2S)-butan-2-yl] 3-[4-(1H-pyrrolo[2,3-b]pyridin-3-yl)piperidin-1-yl]sulfonylaze-tidine-1-carboxylate] | 10 to 100
O=S(=O)(C1CN(c2ncccn2)C1)N1CCC(c2c[nH]c3ncccc23)CC1 [Compound 155, 3-[1-(1-pyrimidin-2-ylazetidin-3-yl)sulfonylpiper-idin-4-yl]-1H-pyrrolo[2,3-b]pyridine] | 100 to 1000
CCN(C(=O)N1CC(S(=O)(=O)N2CCC(c3c[nH]c4ncccc34)CC2)C1)C(C)(C)C [Compound 156, N-tert-butyl-N-ethyl-3-[4-(1H-pyrrolo[2,3-b]pyridin-3-yl)piperidin-1-yl]sulfonylaze-tidine-1-carboxamide] | < 10
O=S(=O)(C1CN(Cc2cccnc2)C1)N1CCC(c2c[nH]c3ncccc23)CC1 [Compound 157, 3-[1-[1-(pyridin-3-ylmethyl)azetidin-3-yl]sulfonylpiper-idin-4-yl]-1H-pyrrolo[2,3-b]pyridine] | 1000 to 10000
O=S(=O)(C1CN(C2CCCC2)C1)N1CCC(c2c[nH]c3ncccc23)CC1 [Compound 158] | 1000 to 10000
CC1(CN2CC(S(=O)(=O)N3CCC(c4c[nH]c5ncccc45)CC3)C2)COC1 [Compound 159, 3-[1-[1-[(3-methyloxetan-3-yl)methyl]azetidin-3-yl]-sulfonylpiper-idin-4-yl]-1H-pyrrolo[2,3-b]pyridine] | 1000 to 10000
O=C(OC[C@@H]1CCCO1)N1CC(S(=O)(=O)N2CCC(c3c[nH]c4ncccc34)CC2)C1 [Compound 163, [(2S)-oxolan-2-yl]methyl 3-[4-(1H-pyrrolo[2,3-b]pyridin-3-yl)piperidin-1-yl]sulfonylaze-tidine-1-carboxylate] | 10 to 100
C[C@@H]1CN(C(=O)N2CC(S(=O)(=O)N3CCC(c4c[nH]c5ncccc45)CC3)C2)C[C@@H](C)O1 [Compound 164, [(2R,6R)-2,6-dimethylmorpholin-4-yl]-[3-[4-(1H-pyrrolo[2,3-b]pyridin-3-yl)piperidin-1-yl]sulfonylaze-tidin-1-yl]methanone] | 10 to 100
C[C@H]1COC[C@H](C)N1C(=O)N1CC(S(=O)(=O)N2CCC(c3c[nH]c4ncccc34)CC2)C1 [Compound 165, [(3S,5S)-3,5-dimethylmorpholin-4-yl]-[3-[4-(1H-pyrrolo[2,3-b]pyridin-3-yl)piperidin-1-yl]sulfonylaze-tidin-1-yl]methanone] | 100 to 1000
CN(C)C(=O)N1CC(S(=O)(=O)N2CCC(c3c[nH]c4ncccc34)CC2)C1 [Compound 167, N,N-dimethyl-3-[4-(1H-pyrrolo[2,3-b]pyridin-3-yl)piperidin-1-yl]sulfonylaze-tidine-1-carboxamide] | 1000 to 10000
CC1(C)COCC(C)(C)N1C(=O)N1CC(S(=O)(=O)N2CCC(c3c[nH]c4ncccc34)CC2)C1 [Compound 169, [3-[4-(1H-pyrrolo[2,3-b]pyridin-3-yl)piperidin-1 yl]sulfonylaze-tidin-1-yl]-(3,3,5,5-tetramethylmorpholin-4-yl)methanone] | 10 to 100
CC(C)(C)OC(=O)N1CCN(S(=O)(=O)N2CC(S(=O)(=O)N3CCC(c4c[nH]c5ncccc45)CC3)C2)CC1 [Compound 172, tert-butyl 4-[3-[4-(1H-pyrrolo[2,3-b]pyridin-3-yl)piperidin-1-yl]sulfonylaze-tidin-1-yl] sulfonylpiper-azine-1-carboxylate] | 10 to 100
CC(C)N(C(=O)N1CC(S(=O)(=O)N2CCC(c3c[nH]c4ncccc34)CC2)C1)C(C)C [Compound 173, N,N-Diisopropyl-3-[[4-(1H-pyrrolo[2,3-b]pyridin-3-yl)-1-piperidyl]sulfonyl]azetidine-1-carboxamide] | 100 to 1000
CN(C(=O)N1CC(S(=O)(=O)N2CCC(c3c[nH]c4ncccc34)CC2)C1)C(C)(C)C [Compound 176, N-tert-butyl-N-methyl-3-[4-(1H-pyrrolo[2,3-b]pyridin-3-yl)piperidin-1-yl]sulfonylaze-tidine-1-carboxamide] | < 10
CN(Cc1ccco1)C(=O)N1CC(S(=O)(=O)N2CCC(c3c[nH]c4ncccc34)CC2)C1 [Compound 178, N-(2-Furylmethyl)-N-methyl-3-[[4-(1H-pyrrolo[2,3-b]pyridin-3-yl)-1-piperidyl]sulfonyl]azetidine-1-carboxamide] | 10 to 100
